Consider 2 compounds from patent publication US5961952A, “^99m Tc-tertiary-butyl isonitrile as breast tumor imaging agents” (DuPont Pharmaceuticals Company, priority 1997, dated 1999).

Test [1] deals with HBL100 nontransformed breast cells. Description: Uptake assay in HBL100 nontransformed breast cells. It counts as cell-based. Particulars: average of two assays, variance 5-20%.
The next test concerns SKBR3 breast tumor cells. The test can be described thus: Uptake assay in SKBR3 breast tumor cells. It counts as cell-based, human. Conditions: average of two assays, variance 5-20%. As to the method:
(§1) The cell uptake assay protocol was developed by Delmon-Moingeon et al.^10 Breast tumor cells (SKBR3) were incubated in media over a 2 hr time course with each test sample. This line has been identified as having high membrane potential and has been characterized for uptake of ^99m Tc-sestamibi. […] The first time point (10 min.) was used to compare compounds, as this was felt to represent the non-equilibrium kinetics of delivery experienced in vivo.

The subject of a further test is SKBR3 tumor cells. The test can be described thus: Tumor cell washout kinetics (t1/2). It counts as cell-based, human. Conditions: washout from SKBR3 cells; for 1/2 life SKBR3 Tumor Cells: second phase of biphasic kinetics. As to the method:
(§2) Two cell lines are grown on cover slips: SKBR3 human breast tumor with known high membrane potential, and an epithelial cell line (CV1) of low membrane potential. Breast tumor cells (SKBR3) and normal epithelial cells (CV-1) are grown on cover slips (5×10^5 cells) and incubated for 60 min with 100 μCi of ^99m Tc-isonitrile. The slips are then incubated for 120 min in nonisotopic medium with repeated rinses. ^99m Tc activity remaining on the slips is determined at 0, 0.5, 1, 1.5, and 2 hr. Results are expressed as the ratio of tumor/normal ^99m Tc activity at each of the times. Values are the mean of 4 slips per cell line.
The half lives were also calculated for the washout of ^99m Tc-isonitriles from SKBR3 cells.

In test [2] the test system is SKBR3 human breast tumor cells vs CV-1 normal epithelial cells. Description: Washout assay: retention in an adherent cell assay, ratio of tumor (SKBR3)/normal (CV-1). It counts as cell-based. Conditions: for Retention, ratio of tumor/normal 99mTc activity: SKBR3/CV-1, mean of 4 slips per cell line. As to the method: as §2
The washout assay characterizes the retention of compounds having gained access to the cell. A significant feature of this assay is that each cover slip was given a cell count at the end of the assay, and results were corrected for actual cell density. Because of high nonspecific binding to the coverslips, early times during washout are not meaningful, and so actual uptake and pharmacokinetics during the first phase of washout are not available. The results, however, are useful in predicting prolonged retention of compounds after blood levels have cleared.

Test [3] has as its system breast tumors in c-neu oncomice. Description: Pairwise imaging in the c-neu oncomouse. Conditions: for Mean of Tumor Ratio Test/99mTc-sestamibi +/- Std Dev: paired imaging, c-neu oncomice, 6 animals (14 tumors), ** p < .01. It counts as in vivo, mouse. The source says: The pairwise model was designed to directly compare the images of ^99m Tc-TBI with ^99m Tc-sestamibi. The same mouse was imaged at two separate times within 96 hr of each other with the test compound at one time and ^99m Tc-sestamibi at the other. The order of test and reference compound injected were random, but each study included at least an n=2 in each direction.
Female c-neu oncomice (18-30 g) and FVB wildtype mice were used in the pairwise studies. Mice with breast tumors between 1-15 mm were selected for imaging. Animals were anesthetized with sodium pentobarbital (IP) at a dose of 80 mg/kg. Tumors were measured with dial calipers and recorded on mouse templates. The tail was immersed in hot water for 1-2 min, wiped with alcohol, and injected via the tail vein (28 gauge insulin needle) with […] (0.15mL) of prepared ^99m Tc-TBI. The mouse was secured in a supine position on the dissection board with limbs and head extended to expose the chest area for optimal imaging of breast tumors. All image acquisitions were performed using a Picker Digital Dyna Gamma Camera, a Siemens MicroDelta terminal/MAXDELTA system, and a custom-made 1 mm pinhole collimator mounted on the gamma camera. The general static acquisition protocol was employed, using an acquisition matrix of 256×256 pixels, in word mode. The mouse was placed at a distance of 3 cm from the surface of the dissection board to the bottom of the collimator. The anterior view of the upper torso of the animal was acquired at each time point. Consecutive images were collected starting at 10 min post injection. Six 10 min images were collected at the 3 cm distance and one 10 min image was collected of the whole body at 15 cm to determine any tail vein activity. […] Total activity injected was determined by measuring the syringe before and after injection, then corrected for decay back to the time of injection. The pairwise images within each study were normalized for injected dose and regions of interest were taken over breast tumors and the heart. The mean ratio of ^99m Tc-TBI to ^99m Tc-sestamibi in the tumor was reported.

Another test concerns heart. Particulars: Example 5 of Bergstein et al, U.S. Pat. No. 4,988,827; compared with ether isonitriles; cited from earlier work.
In the next test the test system is A549 lung tumor cells. Description: Uptake assay in A549 lung tumor cells. It counts as cell-based. Conditions: average of two assays, variance 5-20%. As to the method: [Worded in the source for another cell line; this cell line is reported under the same test.] as §1
Test [4] concerns breast adenocarcinomas in c-neu oncomice. Description: Dual label whole body autoradiography and histochemistry. Particulars: c-neu OncoMouse, whole body autoradiography. It counts as in vivo, mouse. As to the method:
The test compound was given i.v. to a transgenic c-neu mouse (OncoMouse™). This mouse has been genetically constructed to spontaneously produce breast tumors. The tumors develop with the same cribriform pattern as observed in human tumors and have a similar pattern of blood supply.
Female c-neu oncomice bearing breast adenocarcinomas >0.5 cm in diameter were injected i.v. with 1-3 mCi of ^99m Tc-TBI and 5 μCi of C-14 2-deoxy-D-glucose. The mice were sacrificed at 30 min post injection by CO2 inhalation. The carcass was embedded and frozen in embedding medium and 20μ frozen sections were obtained in a cryotome. Autoradiograms of sections and standards were obtained on Kodak SB5 X-ray film. Adjacent sections (5μ) were obtained and stained with hemotoxylin and eosin (H&E). Images were digitized on a LOATS video-based computerized densitometer, and regions of intersect were obtained (% ID/g).

Another test relates to breast tumors. Particulars: J. Nucl. Med. 1993, 34:149P; cited from earlier work.

On to “^99m Tc-tertiary-butyl isonitrile complex [TBI]”, for which the “Uptake (% of total)” value amounted to 61.3% in test [1] (HBL100, 10 minutes); 62.4% in test [1] (HBL100, 20 minutes); 64.3% in [1] (HBL100, 60 minutes); 71.1% in the test with SKBR3 breast tumor cells (SKBR3, 10 minutes); 68.1% in the test on SKBR3 breast tumor cells (SKBR3, 20 minutes); 67% in the test with SKBR3 breast tumor cells (SKBR3, 60 minutes). The “Uptake (% of total)” value in the test on A549 lung tumor cells (A549, 10 minutes) came to 49.8%; in the test with A549 lung tumor cells (A549, 20 minutes), 45.3%; in the test on A549 lung tumor cells (A549, 60 minutes), 43.1%. In the test on SKBR3 tumor cells, the “increase in t1/2 (longer retention) compared with 99mTc-sestamibi” value is recorded as 6 fold. Moreover, the “1/2 life SKBR3 Tumor Cells” value in the test on SKBR3 tumor cells was 656.0. The “retention in tumor cells during washout” value in test [2] (tumor cell culture, in words) is on record as “prolonged retention in tumor cells during washout”. For the same compound, the “Retention, ratio of tumor/normal 99mTc activity” value in [2] (washout time 0 hr) turned out to be 12; in test [2] (washout time 0.5 hr) it was 24; in test [2] (washout time 1 hr) it was 31; in [2] (washout time 1.5 hr) it was 35; in test [2] (washout time 2 hr) it was 37. In addition, the “tumor uptake and retention in vivo, relative to 99mTc-sestamibi” value in test [3] (in words) was “significantly increased tumor uptake and retention in vivo”. Also, the “Mean of Tumor Ratio Test/99mTc-sestamibi +/- Std Dev” value in test [3] is 1.33 +/-0.43. In [3] (pairwise imaging, c-neu OncoMouse, p<0.01), the “increase in tumor retention/uptake compared with 99mTc-sestamibi” value is 133%. Further, the “heart/liver and heart/lung uptake ratios” value in the test with heart is “low heart/liver and heart/lung uptake ratios”.
Consider `[C-]#[N+]CC(C)(C)OC.[C-]#[N+]CC(C)(C)OC.[C-]#[N+]CC(C)(C)OC.[C-]#[N+]CC(C)(C)OC.[C-]#[N+]CC(C)(C)OC.[C-]#[N+]CC(C)(C)OC.[Tc]` [MIBI, reference compound], for which the “Uptake (% of total)” value is given as 0.9% in [1] (HBL100, 10 minutes); 3.4% in test [1] (HBL100, 20 minutes); 8.8% in [1] (HBL100, 60 minutes); 1.8% in the test on SKBR3 breast tumor cells (SKBR3, 10 minutes); 4.5% in the test with SKBR3 breast tumor cells (SKBR3, 20 minutes); 17.2% in the test on SKBR3 breast tumor cells (SKBR3, 60 minutes). Further, the “Uptake (% of total)” value in the test with A549 lung tumor cells (A549, 10 minutes) is reported as 0.7%; with A549 lung tumor cells (A549, 20 minutes) it was 2.5%; in the test with A549 lung tumor cells (A549, 60 minutes), 7.3%. For the same compound, in the test with SKBR3 tumor cells, the “1/2 life SKBR3 Tumor Cells” value is given as 120.5. Further, the “Retention, ratio of tumor/normal 99mTc activity” value in [2] (washout time 0 hr) came to 38; in [2] (washout time 0.5 hr), 36; in test [2] (washout time 1 hr), 34; in test [2] (washout time 1.5 hr), 29; in test [2] (washout time 2 hr) it was 26. In addition, the “correlation between breast tumor retention and tissue viability” value in test [4] was “strong correlation”. Moreover, in [3], the “Mean of Tumor Ratio Test/99mTc-sestamibi +/- Std Dev” value was 1. In addition, in the test with breast tumors, the “sensitivity for imaging breast tumors” value is given as over 90%. The “specificity for imaging breast tumors” value with breast tumors is given as over 70%.
